Source: ChEMBL document CHEMBL1201862, “PubChem BioAssay data set” (2004)
Activity calls are given as the source filed them.

What was measured:
[1] = cells
[2] = target: Major prion protein (Homo sapiens, UniProt P04156); format: functional, cell-based
[3] = HIV-1 AD8 envelope cell-cell fusion blockers – cherry-pick, dose response (AID 652062); format: functional, cell-based;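 note: luciferase signal from cell-cell fusion driven by HIV-1 clade B AD8 Env; potency is for inhibitors of fusion seen as a drop in luminescence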
[4] = blockers of HIV-1 ZM109 envelope-driven cell-cell fusion – HeLa effector, CEM target cells, luciferase, cherry-pick, dose response (AID 652058); format: functional, cell-based;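 note: luciferase signal from HIV-1 Env mediated cell-cell fusion of effector and target cells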
[5] = blockers of HIV-1 envelope-mediated cell-cell fusion – cherry-pick, dose response (AID 652057); format: functional, cell-based
[6] = cells; format: functional, cell-based
[7] = cells; format: functional, cell-based; remark: listed apart in the source
[8] = target: Estrogen receptor beta (Homo sapiens, UniProt Q92731);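 note: recombinant ER-beta bound to coactivator SRC1 peptide in presence of estradiol agonist; inhibitors block coactivator peptide binding and lower the FRET signal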
Chain of Estrogen receptor beta (Q92731 whole entry): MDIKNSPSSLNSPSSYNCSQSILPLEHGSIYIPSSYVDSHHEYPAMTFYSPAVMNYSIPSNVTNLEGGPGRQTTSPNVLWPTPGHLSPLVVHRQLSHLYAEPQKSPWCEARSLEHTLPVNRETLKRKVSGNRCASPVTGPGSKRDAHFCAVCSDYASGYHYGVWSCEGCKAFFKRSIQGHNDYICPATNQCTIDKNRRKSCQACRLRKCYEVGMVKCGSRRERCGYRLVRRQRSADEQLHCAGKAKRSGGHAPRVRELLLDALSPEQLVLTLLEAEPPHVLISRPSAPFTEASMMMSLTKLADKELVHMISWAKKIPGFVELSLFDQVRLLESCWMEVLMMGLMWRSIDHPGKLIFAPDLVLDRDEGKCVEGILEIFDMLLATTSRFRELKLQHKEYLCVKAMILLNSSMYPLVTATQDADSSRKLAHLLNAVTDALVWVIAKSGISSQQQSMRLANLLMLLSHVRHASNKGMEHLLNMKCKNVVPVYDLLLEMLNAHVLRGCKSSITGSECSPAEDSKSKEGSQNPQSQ

[9] = target: FAD-linked sulfhydryl oxidase ALR (Homo sapiens, UniProt P55789); assay: ALR-catalysed DTT oxidation blockers – biochemical, H2O2 detection, luminescence, cherry-pick, dose response (AID 493248)
Chain of FAD-linked sulfhydryl oxidase ALR (P55789 whole entry): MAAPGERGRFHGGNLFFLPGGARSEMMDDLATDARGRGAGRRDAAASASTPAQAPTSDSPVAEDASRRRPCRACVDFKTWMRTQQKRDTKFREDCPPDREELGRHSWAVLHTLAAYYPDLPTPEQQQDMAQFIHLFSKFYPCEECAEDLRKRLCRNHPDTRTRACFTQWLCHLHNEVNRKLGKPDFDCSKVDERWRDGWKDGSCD

[10] = target: Prothrombin (Homo sapiens, UniProt P00734); assay: Thrombin 1536 HTS Dose Response Confirmation. [Related pubchem assays: 1046 (Thrombin 1536 HTS; hits were confirmed in this assay)]; format: functional
[11] = target: T1, Replicative DNA helicase DnaB (Mycobacterium tuberculosis, UniProt P9WMR3); assay: DnaB intein splicing inhibitors, dose response, biochemical, cell-free fluorescence (AID 449749); format: functional
T1 sequence (P9WMR3 whole entry): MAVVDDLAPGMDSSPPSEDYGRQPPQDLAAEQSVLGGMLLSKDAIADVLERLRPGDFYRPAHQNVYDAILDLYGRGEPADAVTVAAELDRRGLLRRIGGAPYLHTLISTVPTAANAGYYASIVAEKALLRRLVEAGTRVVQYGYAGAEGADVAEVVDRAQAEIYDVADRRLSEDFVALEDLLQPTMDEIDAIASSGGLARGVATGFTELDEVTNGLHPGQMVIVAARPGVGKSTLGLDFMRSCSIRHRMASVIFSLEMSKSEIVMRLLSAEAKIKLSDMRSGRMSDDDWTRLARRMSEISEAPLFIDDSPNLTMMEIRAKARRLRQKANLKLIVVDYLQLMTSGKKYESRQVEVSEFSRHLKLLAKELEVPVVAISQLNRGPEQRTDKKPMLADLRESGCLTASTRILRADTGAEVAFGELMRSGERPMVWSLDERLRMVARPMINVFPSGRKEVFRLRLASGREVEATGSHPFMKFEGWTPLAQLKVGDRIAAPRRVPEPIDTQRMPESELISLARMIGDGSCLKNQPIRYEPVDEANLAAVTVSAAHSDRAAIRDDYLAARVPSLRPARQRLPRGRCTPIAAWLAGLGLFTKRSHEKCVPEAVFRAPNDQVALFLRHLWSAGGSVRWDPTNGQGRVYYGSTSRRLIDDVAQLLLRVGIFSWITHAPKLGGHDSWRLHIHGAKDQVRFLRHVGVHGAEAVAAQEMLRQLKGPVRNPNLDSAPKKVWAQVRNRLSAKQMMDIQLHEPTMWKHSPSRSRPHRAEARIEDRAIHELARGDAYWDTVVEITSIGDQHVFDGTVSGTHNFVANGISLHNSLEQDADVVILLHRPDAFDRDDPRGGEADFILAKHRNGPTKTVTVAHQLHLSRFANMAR

[12] = target: T2, Protein RecA (Mycobacterium tuberculosis, UniProt P9WHJ3); assay: Fluorescence Cell-Free Homogeneous Dose Retest to Identify Inhibitors of RecA-Intein Splicing Activity. [Related pubchem assays (depositor defined):AID2097, AID2223, AID489010, AID492950]; format: functional
T2 sequence (P9WHJ3 whole entry): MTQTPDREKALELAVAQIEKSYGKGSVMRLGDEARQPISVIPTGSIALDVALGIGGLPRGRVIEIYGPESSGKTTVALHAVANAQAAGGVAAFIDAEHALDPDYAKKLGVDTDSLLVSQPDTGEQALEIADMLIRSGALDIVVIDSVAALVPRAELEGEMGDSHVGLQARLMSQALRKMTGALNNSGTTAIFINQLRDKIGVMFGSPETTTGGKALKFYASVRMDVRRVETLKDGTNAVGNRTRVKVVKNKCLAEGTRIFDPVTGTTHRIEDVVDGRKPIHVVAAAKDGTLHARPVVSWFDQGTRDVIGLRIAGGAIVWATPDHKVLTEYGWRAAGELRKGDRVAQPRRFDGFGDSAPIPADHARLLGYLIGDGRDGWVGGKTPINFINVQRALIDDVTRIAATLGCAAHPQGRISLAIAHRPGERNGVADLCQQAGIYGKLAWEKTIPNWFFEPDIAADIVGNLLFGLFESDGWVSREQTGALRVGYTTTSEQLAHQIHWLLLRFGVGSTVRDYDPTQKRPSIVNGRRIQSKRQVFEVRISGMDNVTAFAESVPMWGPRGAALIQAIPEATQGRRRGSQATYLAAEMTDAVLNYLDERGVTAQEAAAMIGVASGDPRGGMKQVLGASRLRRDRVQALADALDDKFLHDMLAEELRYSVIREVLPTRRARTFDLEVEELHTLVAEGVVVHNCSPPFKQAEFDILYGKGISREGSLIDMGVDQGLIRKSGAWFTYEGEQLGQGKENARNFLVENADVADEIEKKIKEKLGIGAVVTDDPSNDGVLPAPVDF

[13] = target: T3, Mannose-6-phosphate isomerase (Homo sapiens, UniProt P34949); assay: MPI inhibition at elevated mannose 6-phosphate – biochemical, fluorescence intensity, high mannose 6-phosphate, primary screen (AID 1220)
T3 sequence (P34949 whole entry): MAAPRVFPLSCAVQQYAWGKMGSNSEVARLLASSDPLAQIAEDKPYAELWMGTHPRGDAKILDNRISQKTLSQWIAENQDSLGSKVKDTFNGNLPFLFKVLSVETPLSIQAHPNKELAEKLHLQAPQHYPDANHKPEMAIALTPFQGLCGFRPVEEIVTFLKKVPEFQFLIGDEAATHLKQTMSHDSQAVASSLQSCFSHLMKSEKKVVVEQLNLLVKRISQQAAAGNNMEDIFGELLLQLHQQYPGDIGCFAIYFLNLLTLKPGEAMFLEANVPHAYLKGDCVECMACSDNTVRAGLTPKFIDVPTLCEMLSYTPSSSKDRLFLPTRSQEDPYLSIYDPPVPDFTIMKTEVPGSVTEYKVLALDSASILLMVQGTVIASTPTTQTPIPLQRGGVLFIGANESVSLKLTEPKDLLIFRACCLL

[14] = target: T4, Apoptotic protease-activating factor 1 (Homo sapiens, UniProt O14727); format: functional
T4 sequence (O14727 whole entry): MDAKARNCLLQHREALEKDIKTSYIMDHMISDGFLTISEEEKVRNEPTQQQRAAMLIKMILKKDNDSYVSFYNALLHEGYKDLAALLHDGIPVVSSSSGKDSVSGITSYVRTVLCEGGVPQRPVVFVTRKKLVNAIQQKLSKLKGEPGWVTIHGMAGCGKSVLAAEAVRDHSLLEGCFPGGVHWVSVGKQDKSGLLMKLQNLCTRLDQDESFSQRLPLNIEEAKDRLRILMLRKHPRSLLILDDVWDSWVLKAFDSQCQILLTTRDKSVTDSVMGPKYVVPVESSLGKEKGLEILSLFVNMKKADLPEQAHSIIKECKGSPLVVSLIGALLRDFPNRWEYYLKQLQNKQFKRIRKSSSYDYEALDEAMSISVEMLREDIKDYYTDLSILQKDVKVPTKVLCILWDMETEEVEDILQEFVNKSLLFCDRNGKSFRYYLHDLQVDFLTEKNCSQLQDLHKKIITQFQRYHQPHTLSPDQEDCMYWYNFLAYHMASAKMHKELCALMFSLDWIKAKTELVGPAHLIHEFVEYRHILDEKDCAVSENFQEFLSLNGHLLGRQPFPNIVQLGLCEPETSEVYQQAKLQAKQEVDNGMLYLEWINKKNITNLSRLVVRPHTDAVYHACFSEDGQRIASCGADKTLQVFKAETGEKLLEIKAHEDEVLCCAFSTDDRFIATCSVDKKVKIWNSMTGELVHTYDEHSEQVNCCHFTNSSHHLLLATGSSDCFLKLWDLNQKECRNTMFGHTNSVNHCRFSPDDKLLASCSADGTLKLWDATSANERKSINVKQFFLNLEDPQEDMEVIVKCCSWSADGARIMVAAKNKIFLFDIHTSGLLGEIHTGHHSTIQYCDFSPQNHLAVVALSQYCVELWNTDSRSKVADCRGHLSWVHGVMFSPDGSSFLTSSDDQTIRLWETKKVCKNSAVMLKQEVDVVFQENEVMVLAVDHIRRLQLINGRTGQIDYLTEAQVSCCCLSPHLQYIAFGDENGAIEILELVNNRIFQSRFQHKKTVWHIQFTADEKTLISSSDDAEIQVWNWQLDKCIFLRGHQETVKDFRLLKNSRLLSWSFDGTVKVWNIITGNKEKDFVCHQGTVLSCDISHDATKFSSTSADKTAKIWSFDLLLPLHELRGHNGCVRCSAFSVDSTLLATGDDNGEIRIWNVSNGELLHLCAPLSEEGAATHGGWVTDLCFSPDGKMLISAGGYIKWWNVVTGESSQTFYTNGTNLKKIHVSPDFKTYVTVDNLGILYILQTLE

[15] = NIH-3T3 fibroblast cytotoxicity, dose response, cytotoxicity control, cell-based, fluorescence, Alamar Blue, secondary assay (AID 2327); format: functional;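 note: NIH-3T3 mouse fibroblasts cultured with fluconazole at 8 µg/mL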
[16] = target: Induced myeloid leukemia cell differentiation protein Mcl-1 (Homo sapiens, UniProt Q07820); format: functional
Chain of Induced myeloid leukemia cell differentiation protein Mcl-1 (Q07820 whole entry): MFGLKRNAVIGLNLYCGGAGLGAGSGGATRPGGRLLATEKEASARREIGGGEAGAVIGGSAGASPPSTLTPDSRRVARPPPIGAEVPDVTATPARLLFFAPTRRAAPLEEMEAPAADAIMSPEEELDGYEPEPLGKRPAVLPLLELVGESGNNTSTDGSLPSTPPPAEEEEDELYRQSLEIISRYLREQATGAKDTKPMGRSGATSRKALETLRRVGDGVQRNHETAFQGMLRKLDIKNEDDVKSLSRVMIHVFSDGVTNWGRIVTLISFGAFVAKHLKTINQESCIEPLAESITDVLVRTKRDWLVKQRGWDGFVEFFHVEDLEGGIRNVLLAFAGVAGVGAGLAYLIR

[17] = target: Glucose-6-phosphate 1-dehydrogenase (Homo sapiens, UniProt P11413); assay: inhibition of Homo sapiens G6PD, dose series – biochemical, fluorescence, selectivity assay for P. falciparum G6PD inhibitor project, dose response (AID 504792); format: functional
Chain of Glucose-6-phosphate 1-dehydrogenase (P11413 whole entry): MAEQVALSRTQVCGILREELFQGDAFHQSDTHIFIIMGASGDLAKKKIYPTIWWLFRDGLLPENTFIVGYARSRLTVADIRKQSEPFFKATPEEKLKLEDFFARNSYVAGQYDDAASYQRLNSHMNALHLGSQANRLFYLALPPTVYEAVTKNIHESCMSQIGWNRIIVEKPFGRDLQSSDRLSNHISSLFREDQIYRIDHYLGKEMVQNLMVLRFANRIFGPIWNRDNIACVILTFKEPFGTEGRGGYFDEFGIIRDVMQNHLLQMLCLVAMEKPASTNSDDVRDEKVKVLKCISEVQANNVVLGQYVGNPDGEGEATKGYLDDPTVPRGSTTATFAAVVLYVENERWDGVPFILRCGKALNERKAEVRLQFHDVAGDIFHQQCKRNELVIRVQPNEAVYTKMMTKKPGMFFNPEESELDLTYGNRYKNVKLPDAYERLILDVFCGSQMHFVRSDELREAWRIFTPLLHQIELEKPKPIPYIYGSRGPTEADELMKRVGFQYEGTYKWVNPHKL

[18] = fluconazole-exposed Candida albicans growth modulators – fluorescence, retest, confirmation (AID 2467); format: functional, cell-based
[19] = target: Genome polyprotein (dengue virus type 2, UniProt P29990); assay: flavivirus cap methylation enzyme inhibition – biochemical, confirmation dose response, primary screen (AID 588689); format: functional
Chain of Genome polyprotein (P29990 2492-3391 limits assumed): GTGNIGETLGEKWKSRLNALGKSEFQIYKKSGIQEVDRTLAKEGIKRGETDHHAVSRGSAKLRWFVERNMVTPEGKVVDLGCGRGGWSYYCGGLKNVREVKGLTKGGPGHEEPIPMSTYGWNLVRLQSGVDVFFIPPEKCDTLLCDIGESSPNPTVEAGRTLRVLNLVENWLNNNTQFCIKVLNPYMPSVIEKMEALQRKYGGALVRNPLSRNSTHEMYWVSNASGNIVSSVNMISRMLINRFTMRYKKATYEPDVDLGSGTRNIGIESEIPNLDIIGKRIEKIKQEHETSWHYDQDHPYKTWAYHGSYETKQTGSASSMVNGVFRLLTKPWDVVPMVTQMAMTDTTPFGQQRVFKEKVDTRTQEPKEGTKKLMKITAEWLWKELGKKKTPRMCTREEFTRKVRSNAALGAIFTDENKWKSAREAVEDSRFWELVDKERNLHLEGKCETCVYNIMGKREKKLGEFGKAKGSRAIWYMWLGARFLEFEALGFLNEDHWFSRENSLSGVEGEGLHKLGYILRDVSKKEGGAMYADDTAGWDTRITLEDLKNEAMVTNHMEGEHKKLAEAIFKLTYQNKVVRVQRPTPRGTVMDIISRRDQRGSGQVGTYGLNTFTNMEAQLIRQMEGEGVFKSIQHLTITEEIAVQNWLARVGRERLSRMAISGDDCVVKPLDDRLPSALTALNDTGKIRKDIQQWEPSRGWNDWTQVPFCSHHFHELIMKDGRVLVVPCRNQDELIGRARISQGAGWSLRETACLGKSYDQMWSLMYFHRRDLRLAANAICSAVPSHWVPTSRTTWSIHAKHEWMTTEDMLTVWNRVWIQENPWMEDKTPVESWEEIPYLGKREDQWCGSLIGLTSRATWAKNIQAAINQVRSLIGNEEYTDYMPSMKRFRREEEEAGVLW

[20] = toxicity toward HepG2 liver cells – cell-based, plate reader, cherry-pick, antagonist series, cytotoxicity control, dose response (AID 743416); format: functional
[21] = blockers of bursicon-stimulated LGR2 cAMP reporter – cell-based, HEK293, CRE-luciferase reporter, cherry pick, set 2, dose response (AID 743343); format: functional;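 note: transfected cells were stimulated with diluted bursicon conditioned medium after compound addition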
[22] = A549 cell cytotoxicity, dose response, cytotoxicity control, plate reader, cherry-pick, antagonist series (AID 743412); format: functional, cell-based

Sc1nc(Cc2ccc(Cl)cc2)nc2ccccc12
IC50 [1]: > 138 µM (inactive) | IC50 [2]: 7.46 µM (active)

COc1ccc(NC(=O)Nc2ccc3c(c2)C(=O)N([C@H](C)CO)C[C@H](C)[C@H](CN(C)CC2CC2)OCCCC[C@H](C)O3)cc1
AC50 [3]: 23.5 µM (active) | AC50 [4]: 26.5 µM (active) | AC50 [5]: 25.9 µM (active)

c1ccc2c(c1)OCC(CNc1[nH]cnc3ncnc1-3)O2 (stereo unspecified)
AC50 [3]: 2.64 µM (active) | AC50 [4]: 7.15 µM (active)

CC(C)c1nc(SCC(=O)Nc2nc3c(s2)CCCC3)c2ccccc2n1
IC50 [1]: > 138 µM (inactive) | IC50 [2]: 5.97 µM (active)

CC[n+]1c(S(=O)(=O)[O-])ccc2ccc(C)cc21
EC50 [6]: > 350 µM (not active) | EC50 [7]: > 350 µM (not active)

O=C1OC(Nc2ccc3c(c2)OCO3)c2ccccc21 (stereo unspecified)
IC50 [8]: > 50 µM (not active) | AC50 [9]: 0.577 µM (active)

Cc1c(-c2cccs2)[n+]([O-])c2c([n+]1[O-])CCC2
IC50 [10]: > 50 µM (not active)

CCOc1ccc(C(=O)C2=C(O)C(=O)N(c3ccccn3)C2c2ccc(F)cc2)c(C)c1 (stereo unspecified)
IC50 [1]: > 138 µM (inactive) | IC50 [2]: 13 µM (inactive)

Cc1cnc(NC(=O)c2cc(S(=O)(=O)N(C)C)ccc2N2CCCC2)s1
IC50 [1]: > 138 µM (inactive) | IC50 [2]: 2.87 µM (active)

C[C@H](CO)N1C[C@H](C)[C@H](CN(C)Cc2cccnc2)OCc2ccccc2-c2c(n(C)c3ccccc23)C1=O
AC50 [3]: 0.805 µM (active) | AC50 [4]: 1.21 µM (active) | AC50 [5]: 15.6 µM (active)

CC(Oc1ccc2ccc(=O)oc2c1)C(=O)NCCN1CCOCC1 (stereo unspecified)
EC50 [6]: > 350 µM (not active) | EC50 [7]: > 350 µM (not active)

Cc1cccc(NC(=S)NC(=O)/C=C/c2ccccc2)n1
IC50 [10]: > 50 µM (not active)

CCn1cc(C(=O)NCc2ccc(Cl)cc2)c(=O)c2cc(S(=O)(=O)N3CCOCC3)ccc21
IC50 [10]: 8.07 µM (active)

O=C1C2C3C=CC(C3)C2C(=O)N1c1cccc2cccnc12 (stereo unspecified)
IC50 [8]: 21.4 µM (active)

Nc1nc(C(=O)N2CCOCC2)nn1C(=O)c1ccc(Cl)cc1
AC50 [11]: 12.5 µM (active) | EC50 [12]: 23.4 µM (active) | IC50 [10]: 0.00512 µM (active)

O=[N+]([O-])c1ccc(N/N=C/c2ccc(O)c(O)c2O)c(S(=O)(=O)N2CCOCC2)c1
IC50 [13]: > 50 µM (not active) | IC50 [14]: 21.4 µM (active) | EC50 [15]: 24.9 µM (active) | IC50 [16]: 2.98 µM (active) | IC50 [17]: 55.6 µM (inactive) | EC50 [18]: > 38 µM (not active) | IC50 [19]: 4.6 µM (active)

CCOC(=O)COc1cc(Br)c(/C=N/Nc2ccccc2)cc1OC
IC50 [1]: > 138 µM (inactive) | IC50 [2]: 16.4 µM (inactive)

COc1ccc(C(=O)CC(Sc2ccccc2N)c2ccc(OC)cc2)cc1 (stereo unspecified)
AC50 [20]: > 52 µM (inactive) | AC50 [21]: 28.7 µM (active) | AC50 [22]: 48.4 µM (active)
